Experimental data taken from publication PMC12564639, “Discovery of a Novel Anticoagulant Cystine Knot Peptide from Spider Venom Gland Transcriptome” (International Journal of Molecular Sciences, 2025).
Where two headings read alike, the source gives them in different places. Bridge positions count the residues as written; N and C are the ends. Square brackets hold non-standard residues; d marks the D form. Ends that are not written are not given here. * marks the point of attachment. pNA = O=[N+]([O-])c1ccc(N*)cc1; pGlu = O=C1CC[C@@H](C(=O)O)N1

Assays:
[1] = venom of Eresus niger; cited from earlier work
Source text: Studies have focused on the use of venom peptides for anticoagulation therapy. […] These peptides typically target key components of the coagulation cascade with high specificity, potency, and selectivity.

[2] = cited from earlier work
Source text: (§1) Anticoagulants are standard therapy for venous thromboembolism and arterial thrombosis-mediated disorders, particularly in acute settings.

[3] = system: thrombin; conditions: cited from earlier work
Source text: as §1

[4] = system: mouse tail bleeding; assay: Tail bleeding time; assay type: in vivo, C57BL/6J mice; conditions: heparin sodium 1000 U/kg i.v., 10 min after administration; n = 6; vehicle 89.8 s
Procedure: The C57BL/6J mice (male, 6–8 weeks old) were purchased from Beijing Vital River Laboratory Animal Technology Co., Ltd. (Beijing, China). All animal studies were performed under the approval of the Ethics Committee of the Laboratory Animal Welfare of the Kunming Institute of Zoology, Chinese Academy of Sciences (IACUC-RE-2025-03-010).
The mouse tail-bleeding assay was performed to evaluate the bleeding risk associated with GC38 treatment. Male C57BL/6J mice (6–8 weeks, n = 6 per group) were randomized to receive intravenous injection of PBS (negative control), GC38 (2 or 4 mg/kg in PBS), or heparin sodium (1000 U/kg, positive control). The assay was conducted 10 min after administration. Mice were anesthetized, and a 2 mm segment of the tail tip was surgically transected using a sterile scalpel. Immediately after the incision, the tail was immersed in prewarmed PBS (37 °C) to facilitate blood flow. Bleeding time was recorded from the moment of the incision until the complete cessation of bleeding (no blood flow for 60 s).

[5] = ref Diapharma Group (supplier named); enzyme not given; cited from earlier work
Source text: Human Activated Protein C (APC-1.0) was purchased from Enzyme Research Laboratories, Inc., South Bend, IN, USA. […] Activated Partial Thromboplastin Time (APTT) Test Kit (TC0306) was bought from Senkey Biotechnology Co., Ltd., Kunming, China. Prothrombin Time (PT) Test Kit (GMS10176) was purchased from GENMED Scientifics Inc., Shanghai, China. Streptavidin (SA) Biosensors (18-5019) were obtained from Sartorius AG, Göttingen, Lower Sa ...

[6] = biological target: Human Activated Protein C (human) (UniProt P04070)

In the case of phospholipase A2, the anticoagulant activity [1] is listed as “anticoagulant activity”.

In the case of hirudin, the bleeding risk ([2]; heparin-induced thrombocytopenia (HIT) management) is listed as “lower bleeding risk than conventional therapies” and the thrombin inhibition [3] is listed as “thrombin inhibitor”.

heparin sodium [reference compound] showed a tail bleeding time [4] of 127.6 s.

For “bivalirudin: Another synthetic peptide, bivalirudin”, the major bleeding events ([2]; percutaneous coronary intervention (PCI), compared to heparin) is given as “reduction in major bleeding events compared to heparin”.

In the case of “[pGlu]-Pro-Arg-pNA [S-2366, Chromogenix substrate S-2366]”, the Km [5] is listed as 200 µM and the kcat [5] is listed as 190 s⁻¹.

In the case of heparin, the bleeding risk ([2]; clinical) is listed as “significant bleeding risks”.

GCSGKGARCAPSKCCSGLSCGRHGGNMYKSCEWNWKTG (disulfide 14-31, 2-15, 9-20) [GC38] showed an APC enzymatic activity at Vmax on chromogenic substrate S-2366 (APC 0.7145 μM, S-2366 402.1 μM), GC38 0.1 to 10 μM, concentration-dependent; highest value at 10 μM [6] of 171%.
